The values that follow come from patent US12187709B2 (Genentech, Inc., priority 2021, dated 2025).

In experiment [1] the target is Human Cbl-b (residues 40-426) (Homo sapiens (Human), UniProt Q13191). In words: Cbl-b SPR assay. Format: binding. Particulars: for Fold of selectivity: C-cbl SPR Kd vs Cbl-b SPR Kd; for Kd: SPR, 20° C. Summed up:
(§1)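 Binding was measured by SPR and fitted to a 1:1 model from multi-cycle kinetics with double referencing, 6 concentrations in 2-fold dilution. Alternatively, single-cycle titrations up to 500 nM (120 s contact) were fitted with kd fixed from a single-exponential fit of chaser-measured % compound bound versus time.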
(In SPR one partner is held on a chip, and binding of the other changes the refractive index at the surface.)

Experiment [2] concerns the target c-Cbl (residues 47-435) (Homo sapiens (Human), UniProt P22681). In words: c-Cbl SPR assay. Format: binding. The following applies: 20° C. The method, boiled down: as §1
Experiment [3] addresses Cbl-b (Homo sapiens (Human), UniProt Q13191). In words: Cbl-b LCK Ub TR-FRET assay (Cbl-b Lck HTRF). Format: biochemical. Particulars: for IC50: Cbl-b LCK Ub TR-FRET; for fold-selectivity (Cbl-b over C-cbl): ratio C-cbl Lck HTRF IC50 / Cbl-b Lck HTRF IC50. Summed up:
(§2)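 Signal is read once the detection mix has stood 20 min at ambient temperature. Curves are anchored by DMSO as maximum and by omission of LCK as minimum.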
A general note: Time-resolved FRET reads energy transfer from a long-lived donor to a nearby acceptor.

For experiment [4], the target named is c-Cbl (Homo sapiens (Human), UniProt P22681). The experiment in a line: C-Cbl LCK Ub TR-FRET assay (C-cbl Lck HTRF). It is filed as biochemical. Summed up: as §2
Sequence of c-Cbl (P22681 47-435): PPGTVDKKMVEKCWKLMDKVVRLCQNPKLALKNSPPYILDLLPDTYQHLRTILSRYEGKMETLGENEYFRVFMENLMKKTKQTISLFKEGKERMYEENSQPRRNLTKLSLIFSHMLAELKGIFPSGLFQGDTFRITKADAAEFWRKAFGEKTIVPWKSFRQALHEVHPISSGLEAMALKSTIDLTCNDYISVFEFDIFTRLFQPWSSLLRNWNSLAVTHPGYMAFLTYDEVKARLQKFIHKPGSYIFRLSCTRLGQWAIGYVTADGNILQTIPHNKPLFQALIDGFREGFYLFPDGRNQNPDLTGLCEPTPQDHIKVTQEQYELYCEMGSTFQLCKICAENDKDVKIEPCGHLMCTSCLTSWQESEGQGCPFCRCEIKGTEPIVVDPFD

Sequence of c-Cbl (residues 47-435) (P22681 47-435): as above
Sequence of Cbl-b (Q13191 40-426): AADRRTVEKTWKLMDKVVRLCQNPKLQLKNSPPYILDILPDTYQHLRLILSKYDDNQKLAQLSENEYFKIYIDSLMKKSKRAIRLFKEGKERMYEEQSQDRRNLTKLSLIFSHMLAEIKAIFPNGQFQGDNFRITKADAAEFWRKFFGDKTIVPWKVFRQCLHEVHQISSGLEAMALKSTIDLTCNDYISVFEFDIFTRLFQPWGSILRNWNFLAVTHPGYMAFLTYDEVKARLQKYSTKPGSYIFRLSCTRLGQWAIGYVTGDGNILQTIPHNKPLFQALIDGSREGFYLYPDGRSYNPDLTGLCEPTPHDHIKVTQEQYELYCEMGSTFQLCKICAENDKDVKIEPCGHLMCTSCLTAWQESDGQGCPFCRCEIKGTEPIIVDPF
Sequence of Human Cbl-b (residues 40-426) (Q13191 40-426): as above

Consider `C[C@H](CC#N)Nc1cc(C2(c3nncn3C)CC3(COC3)C2)cc(N2Cc3c(cc(CNC4(C)CCC4)cc3C(F)(F)F)C2=O)n1` [Compound 192, (R)-3-((4-(6-(4-methyl-4H-1,2,4-triazol-3-yl)-2-oxaspiro[3.3]heptan-6-yl)-6-(6-(((1-methylcyclobutyl)amino)methyl)-1-oxo-4-(trifluoromethyl)isonidolin-2-yl)pyridin-2-yl)amino)butanenitrile], for which the Fold of selectivity in experiment [1] was determined as 5.7×. Besides, the equilibrium dissociation constant (Kd) is 0.0003 µM in experiment [1] and 0.0017 µM in experiment [2]. The IC50 in experiment [3] stood at 0.013 µM; in experiment [4], 0.0092 µM. For the same molecule, the “fold-selectivity (Cbl-b over C-cbl)” value in experiment [3] was found to be 0.7x.
Take `Cn1cnnc1C1(c2cc(OC3CCCC3)nc(N3Cc4c(cc(CNC5(C)CCC5)cc4C(F)(F)F)C3=O)c2)CC2(COC2)C1` [Compound 193]: in experiment [1], the Fold of selectivity stood at 27× and the Kd worked out at 0.012 µM. The molecule further had a Kd in experiment [2] of 0.32 µM. Also, in experiment [3], the IC50 is 0.036 µM and the “fold-selectivity (Cbl-b over C-cbl)” value came to 11x. Besides, the IC50 in experiment [4] turned out to be 0.42 µM.
In experiment [1], `C[C@@H](CC#N)Nc1cc(C2(c3nncn3C)CC3(COC3)C2)cc(N2Cc3c(cc(CNC4(C)CCC4)cc3C(F)(F)F)C2=O)n1` [Compound 194, (S)-3-((4-(6-(4-methyl-4H-1,2,4-triazol-3-yl)-2-oxaspiro[3.3]heptan-6-yl)-6-(6-(((1-methylcyclobutyl)amino)methyl)-1-oxo-4-(trifluoromethyl)isoindolin-2-yl)pyridin-2-yl)amino)butanenitrile] displayed a Fold of selectivity of 8.3× and a Kd of 0.0019 µM. This molecule displayed a Kd in experiment [2] of 0.016 µM. Moreover, in experiment [3], the IC50 amounted to 0.013 µM and the “fold-selectivity (Cbl-b over C-cbl)” value was found to be 2.5x. The same molecule returned an IC50 in experiment [4] of 0.034 µM.
In the case of `Cn1cnnc1[C@]1(c2cc(OC3CCCC3)cc(N3Cc4c(cc(CNC5(C)CCC5)cc4C(F)(F)F)C3=O)c2)C[C@@H](C)C1` [Compound 195, 2-(3-(cyclopentyloxy)-5-((1r,3r)-3-methyl-1-(4-methyl-4H-1,2,4-triazol-3-yl)cyclobutyl)phenyl)-6-(((1-methylcyclobutyl)amino)methyl)-4-(trifluoromethyl)isoindolin-1-one], the Fold of selectivity in experiment [1] is given as 7.6×. The results for the Kd in experiment [1] and in experiment [2] were 0.015 µM and 0.11 µM, respectively. Also, the figures for the IC50 in experiment [3] and in experiment [4] were 0.036 µM and 0.084 µM, respectively. Besides, the “fold-selectivity (Cbl-b over C-cbl)” value in experiment [3] is on record as 2.4x.
For `CO[C@H]1C[C@](c2cccc(N3Cc4c(cccc4C(F)(F)F)C3=O)c2)(c2nncn2C)C1` [Compound 196, 2-(3-((1r,3r)-3-methoxy-1-(4-methyl-4H-1,2,4-triazol-3-yl)cyclobutyl)phenyl)-4-(trifluoromethyl)isoindolin-1-one], in experiment [1], the Fold of selectivity was found to be 5.5× and binding was characterised by a dissociation constant (Kd) of 1.8 µM. The same molecule gave a Kd in experiment [2] of 9.9 µM. In addition, in experiment [3], the IC50 was 1.5 µM and the “fold-selectivity (Cbl-b over C-cbl)” value was found to be 5.6x. In addition, inhibition in experiment [4] was half-maximal at 8.3 µM (IC50).
In experiment [1], `Cn1cnnc1C1(c2cccc(N3Cc4c(cc(CNC5(C)CCC5)cc4C(F)F)C3=O)c2)CC2(COC2)C1` [Compound 197, 4-(difluoromethyl)-2-(3-(6-(4-methyl-4H-1,2,4-triazol-3-yl)-2-oxaspiro[3.3]heptan-6-yl)phenyl)-6-(((1-methylcyclobutyl)amino)methyl)isoindolin-1-one] returned a Fold of selectivity of 9.2× and a Kd of 0.012 µM. Moreover, in experiment [2], the Kd stood at 0.11 µM. Besides, in experiment [3], the IC50 was 0.037 µM and the “fold-selectivity (Cbl-b over C-cbl)” value is recorded as 4.5x. This molecule returned an IC50 in experiment [4] of 0.16 µM.
`CC(C)[C@H]1CN(C)CCN1Cc1cc2c(c(C(F)F)c1)CN(c1cccc(C3(c4nncn4C)CC4(COC4)C3)c1)C2=O.O=CO.O=CO` [Compound 198, (S)-4-(difluoromethyl)-6-((2-isopropyl-4-methylpiperazin-1-yl)methyl)-2-(3-(6-(4-methyl-4H-1,2,4-triazol-3-yl)-2-oxaspiro[3.3]heptan-6-yl)phenyl)isoindolin-1-one formate]: in experiment [1], the Fold of selectivity stood at 5.1× and binding was put at a Kd of 0.029 µM. In experiment [2], this molecule displayed a Kd of 0.12 µM. For the same molecule, in experiment [3], inhibition was half-maximal at 0.046 µM (IC50) and the “fold-selectivity (Cbl-b over C-cbl)” value is on record as 4.4x. Moreover, the IC50 in experiment [4] was 0.2 µM.
On to `COc1cc(N2Cc3c(cc(CNC4(C)CCC4)cc3C(F)(F)F)C2=O)cc([C@]2(c3nncn3C)C[C@@H](OC)C2)c1` [Compound 200, 2-(3-methoxy-5-((1s,3s)-3-methoxy-1-(4-methyl-4H-1,2,4-triazol-3-yl)cyclobutyl)phenyl)-6-(((1-methylcyclobutyl)amino)methyl)-4-(trifluoromethyl)isoindolin-1-one], for which, in experiment [1], the Fold of selectivity stood at 2.4× and the Kd was 0.008 µM. This molecule yielded a Kd in experiment [2] of 0.019 µM. Further, in experiment [3], the IC50 came to 0.024 µM and the “fold-selectivity (Cbl-b over C-cbl)” value was 1.7x. In experiment [4], this molecule had an IC50 of 0.04 µM.
As to `COc1cc(N2Cc3c(cc(CNC4(C)CCC4)cc3C(F)(F)F)C2=O)cc([C@]2(c3nncn3C)C[C@H](OC)C2)c1` [Compound 201, 2-(3-methoxy-5-((1r,3r)-3-methoxy-1-(4-methyl-4H-1,2,4-triazol-3-yl)cyclobutyl)phenyl)-6-(((1-methylcyclobutyl)amino)methyl)-4-(trifluoromethyl)isoindolin-1-one], in experiment [1], the Fold of selectivity was 3.6× and binding was put at a Kd of 0.003 µM. The molecule also registered a Kd in experiment [2] of 0.011 µM. Besides, in experiment [3], the IC50 came out at 0.012 µM and the “fold-selectivity (Cbl-b over C-cbl)” value amounted to 1.5x. Also, in experiment [4], inhibition was half-maximal at 0.018 µM (IC50).
In experiment [1], `CCOc1cc(N2Cc3c(cc(CNC4(C)CCC4)cc3C(F)(F)F)C2=O)cc([C@]2(c3nncn3C)C[C@H](OC)C2)c1` [Compound 202, 2-(3-ethoxy-5-((1r,3r)-3-methoxy-1-(4-methyl-4H-1,2,4-triazol-3-yl)cyclobutyl)phenyl)-6-(((1-methylcyclobutyl)amino)methyl)-4-(trifluoromethyl)isoindolin-1-one] registered a Fold of selectivity of 5.2× and a Kd of 0.0033 µM. Further, the Kd in experiment [2] came out at 0.017 µM. In addition, in experiment [3], the IC50 came to 0.011 µM and the “fold-selectivity (Cbl-b over C-cbl)” value was found to be 1.8x. In experiment [4], this molecule had an IC50 of 0.021 µM.
In experiment [1], `CCOc1cc(N2Cc3c(cc(CNC4(C)CCC4)cc3C(F)(F)F)C2=O)cc([C@]2(c3nncn3C)C[C@@H](OC)C2)c1` [Compound 203, 2-(3-ethoxy-5-((1s,3s)-3-methoxy-1-(4-methyl-4H-1,2,4-triazol-3-yl)cyclobutyl)phenyl)-6-(((1-methylcyclobutyl)amino)methyl)-4-(trifluoromethyl)isoindolin-1-one] came in with a Fold of selectivity of 3.3× and a Kd of 0.0064 µM. In addition, the Kd in experiment [2] stood at 0.021 µM. In addition, in experiment [3], inhibition was half-maximal at 0.018 µM (IC50) and the “fold-selectivity (Cbl-b over C-cbl)” value is on record as 2.1x. Moreover, inhibition in experiment [4] was half-maximal at 0.038 µM (IC50).
Molecule `C=CCOc1cc(N2Cc3c(cc(CNC4(C)CCC4)cc3C(F)(F)F)C2=O)cc([C@]2(c3nncn3C)C[C@@H](OC)C2)c1` [Compound 205, 2-(3-(allyloxy)-5-((1s,3s)-3-methoxy-1-(4-methyl-4H-1,2,4-triazol-3-yl)cyclobutyl)phenyl)-6-(((1-methylcyclobutyl)amino)methyl)-4-(trifluoromethyl)isoindolin-1-one] showed a Fold of selectivity in experiment [1] of 2.8×. Also, the Kd in experiment [1] was determined as 0.046 µM; in experiment [2] it was 0.13 µM. The IC50 in experiment [3] is 0.063 µM; in experiment [4], 0.24 µM. Also, the “fold-selectivity (Cbl-b over C-cbl)” value in experiment [3] is recorded as 3.8x.
With `CO[C@H]1C[C@@](c2cc(OC(C)C)cc(N3Cc4c(cc(CNC5(C)CCC5)cc4C(F)(F)F)C3=O)c2)(c2nncn2C)C1` [Compound 206, 2-(3-isopropoxy-5-((1s,3s)-3-methoxy-1-(4-mehtyl-4H-1,2,4-triazol-3-yl)cyclobutyl)phenyl)-6-(((1-methylcyclobutyl)amino)methyl)-4-(trifluoromethyl)isoindolin-1-one], in experiment [1], the Fold of selectivity was 2.4×. In addition, the Kd was found to be 0.012 µM in experiment [1] and 0.03 µM in experiment [2]. Moreover, the IC50 in experiment [3] came out at 0.034 µM; in experiment [4], 0.082 µM. Besides, the “fold-selectivity (Cbl-b over C-cbl)” value in experiment [3] is on record as 2.4x.
With `CO[C@H]1C[C@](c2cc(OC(C)C)cc(N3Cc4c(cc(CNC5(C)CCC5)cc4C(F)(F)F)C3=O)c2)(c2nncn2C)C1` [Compound 207, 2-(3-isopropoxy-5-((1r,3r)-3-methoxy-1-(4-methyl-4H-1,2,4-triazol-3-yl)cyclobutyl)phenyl)-6-(((1-methylcyclobutyl)amino)methyl)-4-(trifluoromethyl)isoindolin-1-one], in experiment [1], the Fold of selectivity came to 2.6× and the affinity, expressed as Kd, was 0.0093 µM. Also, the Kd in experiment [2] was found to be 0.024 µM. Moreover, in experiment [3], the IC50 came out at 0.024 µM and the “fold-selectivity (Cbl-b over C-cbl)” value was 2.2x. This molecule registered an IC50 in experiment [4] of 0.052 µM.
In experiment [1], `CO[C@H]1C[C@@](c2cc(OC3CCCC3)cc(N3Cc4c(cc(CNC5(C)CCC5)cc4C(F)(F)F)C3=O)c2)(c2nncn2C)C1` [Compound 208, 2-(3-(cyclopentyloxy)-5-((1s,3s)-3-methoxy-1-(4-methyl-4H-1,2,4-triazol-3-yl)cyclobutyl)phenyl)-6-(((1-methylcyclobutyl)amino)methyl)-4-(trifluoromethyl)isoindolin-1-one] yielded a Fold of selectivity of 6.0× and a Kd of 0.25 µM. Further, the Kd in experiment [2] came out at 1.5 µM. For the same molecule, in experiment [3], the IC50 came out at 0.45 µM and the “fold-selectivity (Cbl-b over C-cbl)” value is recorded as 4.8x. Also, the IC50 in experiment [4] came to 2.2 µM.

What is called Kd is the constant that tells how readily two partners part at equilibrium. Higher therefore signals a looser complex. The IC50 is the concentration that inhibits the measured activity by half. Low readings indicate higher potency, high ones lower potency.
